Reference: patent US8937183B2, “Detection of hydrogen peroxide” (Promega Corporation, priority 2011, dated 2015)

What was measured:
[1] = Light generation from compounds following incubation with hydrogen peroxide in different pH solutions (D-cysteine conversion, LDR); assay type: biochemical; conditions: for Signal to Background Ratios: signal with peroxide to background no peroxide
Outline: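 Compounds were diluted from 4 mg/ml DMSO stocks and incubated 60 min at room temperature in Tris pH 7.6, 8.8 or 10.4, with or without 40 μM H2O2 (solution concentration). Aliquots then went into D-cysteine conversion solution for 5 min before LDR luminescence. Duplicates were averaged and compared with no-peroxide wells at the same pH as signal-to-background.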

[2] = Signal strength differences due to reaction pH and buffer composition (hydrogen peroxide, D-cysteine conversion, LDR); assay type: biochemical; conditions: for Net Average Signals at 15 Minutes / Net Average Signals at 60 Minutes / Net Average Signals at 105 Minutes: 100 μl of 10 μM H2O2 added
Procedure: A 30 μl sample of 4 mg/ml PBI 4458 in DMSO was diluted to 1.5 ml with Nanopure water, and 50 μl added to wells A1-12 and E1-12 of a microtiter plate. A 30 μl sample of 4 mg/ml PBI 4472 in DMSO was diluted to 1.5 ml with Nanopure, and 50 μl added to wells B1-12 and F1-12 of the plate. A 30 μl sample of 4 mg/ml PBI 4480 in DMSO was diluted to 1.5 ml with Nanopure water, and 50 μl added to wells C1-12 and G1-12 of the plate. A 30 μl sample of 4 mg/ml PBI 4481 in DMSO was diluted to 1.5 ml with Nanopure water, and 50 μl added to wells D1-12 and H1-12 of the plate. To the plate, a 50 μl sample of 200 mM KHPO4, pH 7.4 was added to wells A1-D4; 50 μl 200 mM Tris buffer, pH 7.4 was added to wells A5-D8; 50 μl 250 mM HEPES buffer, pH 7.5 was added to wells A9-D12; 50 μl 200 mM KHPO4 buffer, pH 9.2 was added to wells E1-H4; 50 μl 250 mM Tris buffer, pH 10.4 was added to wells E5-H8; and 50 μl 100 mM CAPS buffer, pH 10.4 was added to wells E9-H12.
A sample of hydrogen peroxide (30%, Sigma, H1009-5 ml) was diluted to 10 μM with Nanopure water, and 100 μl added to columns 3, 4, 7, 8, 11, 12 wells A-H of the plate. 100 μl Nanopure water was added to columns 1, 2, 5, 6, 9 and 10 of the plate. The plate was incubated at room temperature for 15 minutes.
A conversion solution was made by mixing 5 ml of 1 M HEPES buffer, pH 7.5, 4.9 ml of Nanopure water and 100 μl of 100 mM D-cysteine (in Nanopure water), and […] added to all wells of a luminometer plate.
After incubation, 25 μl of sample from all wells in the plate was transferred and mixed into the corresponding wells in the luminometer plate, incubated 2-3 minutes at room temperature, and 50 μl LDR (Example 23) added. The luminometer plate was incubated for 15 minutes at room temperature, and bioluminescence detected on a GloMax® luminometer.
Additional samples were taken at 60 and 105 minutes and added to a fresh luminometer plates containing 25 μl of conversion solution in all wells. The plates were then incubated for 15 minutes at room temperature, and bioluminescence detected as previously described.

SMILES: CC1(C)OB(c2ccc(COc3ccc4nc(C#N)sc4c3)c3ccccc23)OC1(C)C [PBI 4480, 6-((4-(4,4,5,5-tetramethyl-1,3,2-dioxaborolan-2-yl)naphthalen-1-yl)methoxy)benzo[d]thiazole-2-carbonitrile]
- Signal to Background Ratios ([1]; pH 7.6): 4.5
- averaged RLUs (bioluminescence) ([1]; pH 7.6 TRIS buffer, No H2O2, 60 minutes): 146,664 RLU
- averaged RLUs (bioluminescence) ([1]; pH 7.6 TRIS buffer, With H2O2 (25 μl of 40 μM added), 60 minutes): 657,132 RLU
- Signal to Background Ratios ([1]; pH 8.8): 8.7
- averaged RLUs (bioluminescence) ([1]; pH 8.8 TRIS buffer, No H2O2, 60 minutes): 179,821 RLU
- averaged RLUs (bioluminescence) ([1]; pH 8.8 TRIS buffer, With H2O2 (25 μl of 40 μM added), 60 minutes): 1,563,422 RLU
- Signal to Background Ratios ([1]; pH 10.4): 20.0
- averaged RLUs (bioluminescence) ([1]; pH 10.4 Tris buffer, No H2O2, 60 minutes): 265,315 RLU
- averaged RLUs (bioluminescence) ([1]; pH 10.4 Tris buffer, With H2O2 (25 μl of 40 μM added), 60 minutes): 5,295,463 RLU
- Signal to Background Ratios at 15 Minutes ([2]; CAPS pH 10.4, 15 minutes): 12.1
- Net Average Signals at 15 Minutes ([2]; CAPS pH 10.4, 15 minutes): 1,799,015 RLU
- Signal to Background Ratios at 60 Minutes ([2]; CAPS pH 10.4, 60 minutes): 14.7
- Net Average Signals at 60 Minutes ([2]; CAPS pH 10.4, 60 minutes): 4,256,769 RLU
- Signal to Background Ratios at 105 Minutes ([2]; CAPS pH 10.4, 105 minutes): 12.6
- Net Average Signals at 105 Minutes ([2]; CAPS pH 10.4, 105 minutes): 7,150,225 RLU
- Signal to Background Ratios at 15 Minutes ([2]; HEPES pH 7.5, 15 minutes): 1.0
- Net Average Signals at 15 Minutes ([2]; HEPES pH 7.5, 15 minutes): −234 RLU
- Signal to Background Ratios at 60 Minutes ([2]; HEPES pH 7.5, 60 minutes): 1.7
- Net Average Signals at 60 Minutes ([2]; HEPES pH 7.5, 60 minutes): 29,727 RLU
- Signal to Background Ratios at 105 Minutes ([2]; HEPES pH 7.5, 105 minutes): 2.3
- Net Average Signals at 105 Minutes ([2]; HEPES pH 7.5, 105 minutes): 75,066 RLU
- Net Average Signals at 15 Minutes ([2]; KPO4 Ph 7.4, 15 minutes): 3,538 RLU
- Signal to Background Ratios at 15 Minutes ([2]; KPO4 pH 7.4, 15 minutes): 1.1
- Signal to Background Ratios at 60 Minutes ([2]; KPO4 pH 7.4, 60 minutes): 1.6
- Net Average Signals at 60 Minutes ([2]; KPO4 pH 7.4, 60 minutes): 38,198 RLU
- Signal to Background Ratios at 105 Minutes ([2]; KPO4 pH 7.4, 105 minutes): 1.9
- Net Average Signals at 105 Minutes ([2]; KPO4 pH 7.4, 105 minutes): 86,881 RLU
- Signal to Background Ratios at 15 Minutes ([2]; KPO4 pH 9.2, 15 minutes): 1.7
- Net Average Signals at 15 Minutes ([2]; KPO4 pH 9.2, 15 minutes): 37,330 RLU
- Signal to Background Ratios at 60 Minutes ([2]; KPO4 pH 9.2, 60 minutes): 3.6
- Net Average Signals at 60 Minutes ([2]; KPO4 pH 9.2, 60 minutes): 218,078 RLU
- Signal to Background Ratios at 105 Minutes ([2]; KPO4 pH 9.2, 105 minutes): 5.1
- Net Average Signals at 105 Minutes ([2]; KPO4 pH 9.2, 105 minutes): 587,867 RLU
- Signal to Background Ratios at 15 Minutes ([2]; TRIS pH 10.4, 15 minutes): 11.1
- Net Average Signals at 15 Minutes ([2]; TRIS pH 10.4, 15 minutes): 743,427 RLU
- Signal to Background Ratios at 60 Minutes ([2]; TRIS pH 10.4, 60 minutes): 17.9
- Net Average Signals at 60 Minutes ([2]; TRIS pH 10.4, 60 minutes): 1,903,885 RLU
- Signal to Background Ratios at 105 Minutes ([2]; TRIS pH 10.4, 105 minutes): 17.5
- Net Average Signals at 105 Minutes ([2]; TRIS pH 10.4, 105 minutes): 3,541,742 RLU
- Signal to Background Ratios at 15 Minutes ([2]; Tris pH 7.4, 15 minutes): 1.2
- Net Average Signals at 15 Minutes ([2]; Tris pH 7.4, 15 minutes): 7,845 RLU
- Signal to Background Ratios at 60 Minutes ([2]; Tris pH 7.4, 60 minutes): 2.0
- Net Average Signals at 60 Minutes ([2]; Tris pH 7.4, 60 minutes): 61,031 RLU
- Signal to Background Ratios at 105 Minutes ([2]; Tris pH 7.4, 105 minutes): 2.6
- Net Average Signals at 105 Minutes ([2]; Tris pH 7.4, 105 minutes): 162,663 RLU
